# ChEMBL document CHEMBL4270599, “Synthesis of a 3'-C-ethynyl-β-d-ribofuranose purine nucleoside library: Discovery of C7-deazapurine analogs as potent antiproliferative nucleosides” (Eur J Med Chem, 2018)
# What was measured:
# Assay type in all cases: functional
# NCI-H226 [1] = experiment: Cytotoxicity against human NCI-H226 cells after 48 hrs by SRB assay; settings: NCI-H226, 48 h; for GI50: read-out: pGI50 (converted); for CC50: read-out: pLC50 (the source's name) (converted)
# NCI-H23 = experiment: Cytotoxicity against human NCI-H23 cells after 48 hrs by SRB assay; settings: NCI-H23, 48 h; for GI50: read-out: pGI50 (converted)
# HCT-116 = experiment: Cytotoxicity against human HCT116 cells after 48 hrs by SRB assay; settings: HCT-116, 48 h; for GI50: read-out: pGI50 (converted)
# UACC-62 = experiment: Cytotoxicity against human UACC62 cells after 48 hrs by SRB assay; settings: UACC-62, 48 h; for GI50: read-out: pGI50 (converted); for CC50: read-out: pLC50 (the source's name) (converted)
# UO-31 [2] = experiment: Cytotoxicity against human UO31 cells after 48 hrs by SRB assay; settings: UO-31, 48 h; for GI50: read-out: pGI50 (converted)
# DU-145 [3] = experiment: Cytotoxicity against human DU145 cells after 48 hrs by SRB assay; settings: DU-145, 48 h; for CC50: read-out: LC50 (the source's name); for GI50: read-out: pGI50 (converted)
# MOLT-4 = experiment: Growth inhibition of human MOLT4 cells assessed as cell growth at 10^-8 M incubated for 48 hrs by sulforhodamine B assay relative to control; settings: MOLT-4, 48 h, read-out: Activity
# SR = experiment: Growth inhibition of human SR cells assessed as cell growth at 10^-8 M incubated for 48 hrs by sulforhodamine B assay relative to control; settings: read-out: Activity
# NCI-H226 [4] = experiment: Growth inhibition of human NCI-H226 cells assessed as cell growth at 10^-8 M incubated for 48 hrs by sulforhodamine B assay relative to control; settings: NCI-H226, 48 h, read-out: Activity
# NCI-H522 = experiment: Growth inhibition of human NCI-H522 cells assessed as cell growth at 10^-8 M incubated for 48 hrs by sulforhodamine B assay relative to control; settings: NCI-H522, 48 h, read-out: Activity
# Malme-3M = experiment: Growth inhibition of human MALME-3M cells assessed as cell growth at 10^-8 M incubated for 48 hrs by sulforhodamine B assay relative to control; settings: read-out: Activity
# SK-OV-3 = experiment: Growth inhibition of human SKOV3 cells assessed as cell growth at 10^-8 M incubated for 48 hrs by sulforhodamine B assay relative to control; settings: SK-OV-3, 48 h, read-out: Activity
# UO-31 [5] = experiment: Growth inhibition of human UO31 cells assessed as cell growth at 10^-8 M incubated for 48 hrs by sulforhodamine B assay relative to control; settings: UO-31, 48 h, read-out: Activity
# HOP-92 = experiment: Growth inhibition of human HOP92 cells assessed as cell growth at 10^-7 M incubated for 48 hrs by sulforhodamine B assay relative to control; settings: HOP-92, 48 h, read-out: Activity
# COLO 205 = experiment: Growth inhibition of human COLO205 cells assessed as cell growth at 10^-7 M incubated for 48 hrs by sulforhodamine B assay relative to control; settings: COLO 205, 48 h, read-out: Activity
# SNB-19 = experiment: Growth inhibition of human SNB19 cells assessed as cell growth at 10^-7 M incubated for 48 hrs by sulforhodamine B assay relative to control; settings: SNB-19, 48 h, read-out: Activity
# SK-MEL-2 = experiment: Growth inhibition of human SK-MEL-2 cells assessed as cell growth at 10^-7 M incubated for 48 hrs by sulforhodamine B assay relative to control; settings: SK-MEL-2, 48 h, read-out: Activity
# OVCAR-3 = experiment: Growth inhibition of human OVCAR3 cells assessed as cell growth at 10^-7 M incubated for 48 hrs by sulforhodamine B assay relative to control; settings: OVCAR-3, 48 h, read-out: Activity
# OVCAR-4 [6] = experiment: Growth inhibition of human OVCAR4 cells assessed as cell growth at 10^-7 M incubated for 48 hrs by sulforhodamine B assay relative to control; settings: OVCAR-4, 48 h, read-out: Activity
# NCI/ADR-RES = experiment: Growth inhibition of human NCI/ADR-RES cells assessed as cell growth at 10^-7 M incubated for 48 hrs by sulforhodamine B assay relative to control; settings: read-out: Activity
# TK-10 = experiment: Growth inhibition of human TK10 cells assessed as cell growth at 10^-7 M incubated for 48 hrs by sulforhodamine B assay relative to control; settings: TK-10, 48 h, read-out: Activity
# DU-145 [7] = experiment: Growth inhibition of human DU145 cells assessed as cell growth at 10^-7 M incubated for 48 hrs by sulforhodamine B assay relative to control; settings: DU-145, 48 h, read-out: Activity
# MCF7 [8] = experiment: Growth inhibition of human MCF7 cells assessed as cell growth at 10^-7 M incubated for 48 hrs by sulforhodamine B assay relative to control; settings: MCF7, 48 h, read-out: Activity
# HT-29 = experiment: Growth inhibition of human HT-29 cells assessed as cell growth at 10^-6 M incubated for 48 hrs by sulforhodamine B assay relative to control; settings: HT-29, 48 h, read-out: Activity
# OVCAR-4 [9] = experiment: Growth inhibition of human OVCAR4 cells assessed as cell growth at 10^-6 M incubated for 48 hrs by sulforhodamine B assay relative to control; settings: OVCAR-4, 48 h, read-out: Activity
# NCI-H322M = experiment: Growth inhibition of human NCI-H322M cells assessed as cell growth at 10^-5 M incubated for 48 hrs by sulforhodamine B assay relative to control; settings: read-out: Activity
# KM12 = experiment: Growth inhibition of human KM12 cells assessed as cell growth at 10^-5 M incubated for 48 hrs by sulforhodamine B assay relative to control; settings: KM12, 48 h, read-out: Activity
# OVCAR-5 = experiment: Growth inhibition of human OVCAR5 cells assessed as cell growth at 10^-5 M incubated for 48 hrs by sulforhodamine B assay relative to control; settings: OVCAR-5, 48 h, read-out: Activity
# K562 = experiment: Growth inhibition of human K562 cells assessed as cell growth at 10^-4 M incubated for 48 hrs by sulforhodamine B assay relative to control; settings: K562, 48 h, read-out: Activity
# SW-620 = experiment: Growth inhibition of human SW620 cells assessed as cell growth at 10^-4 M incubated for 48 hrs by sulforhodamine B assay relative to control; settings: SW-620, 48 h, read-out: Activity
# IGROV-1 = experiment: Growth inhibition of human IGROV1 cells assessed as cell growth at 10^-4 M incubated for 48 hrs by sulforhodamine B assay relative to control; settings: IGROV-1, 48 h, read-out: Activity
# MCF7 [10] = experiment: Growth inhibition of human MCF7 cells assessed as cell growth at 10^-4 M incubated for 48 hrs by sulforhodamine B assay relative to control; settings: MCF7, 48 h, read-out: Activity
# [11] = read-out: pLC50 (the source's name) (converted)
# [12] = read-out: LC50 (the source's name)
smiles,measurement,setting,value
C#C[C@@]1(O)[C@@H](CO)O[C@@H](n2cc(F)c3c(N)ncnc32)[C@@H]1O,TGI,NCI-H226 [1]; read-out: TGI,2.63 µM
same,GI50,NCI-H226 [1],0.525 µM
same,CC50,NCI-H226 [1],> 100 µM
same,TGI,NCI-H226 [1]; read-out: pTGI (converted),2.63 µM
same,TGI,NCI-H23; read-out: TGI,6.85 µM
same,GI50,NCI-H23,0.398 µM
same,CC50,NCI-H23; [11],> 100 µM
same,TGI,NCI-H23; read-out: pTGI (converted),6.92 µM
same,CC50,HCT-116; [12],> 100 µM
same,GI50,HCT-116,0.151 µM
same,TGI,UACC-62; read-out: TGI,1.47 µM
same,GI50,UACC-62,0.331 µM
same,CC50,UACC-62,7.24 µM
same,TGI,UACC-62; read-out: pTGI (converted),1.48 µM
same,TGI,UO-31 [2]; read-out: TGI,2.48 µM
same,GI50,UO-31 [2],0.468 µM
same,CC50,UO-31 [2]; [11],> 100 µM
same,TGI,UO-31 [2]; read-out: pTGI (converted),2.51 µM
same,CC50,DU-145 [3],> 100 µM
same,TGI,DU-145 [3]; read-out: TGI,13.4 µM
same,GI50,DU-145 [3],0.355 µM
same,TGI,DU-145 [3]; read-out: pTGI (converted),13.5 µM
same,growth at 0.01 µM,MOLT-4,99%
same,growth at 0.01 µM,SR,101%
same,growth at 0.01 µM,NCI-H226 [4],92%
same,growth at 0.01 µM,NCI-H522,84%
same,growth at 0.01 µM,Malme-3M,103%
same,growth at 0.01 µM,SK-OV-3,96%
same,growth at 0.01 µM,UO-31 [5],94%
same,growth at 0.1 µM,HOP-92,-1%
same,growth at 0.1 µM,COLO 205,81%
same,growth at 0.1 µM,SNB-19,79%
same,growth at 0.1 µM,SK-MEL-2,101%
same,growth at 0.1 µM,OVCAR-3,107%
same,growth at 0.1 µM,OVCAR-4 [6],90%
same,growth at 0.1 µM,NCI/ADR-RES,76%
same,growth at 0.1 µM,TK-10,102%
same,growth at 0.1 µM,DU-145 [7],92%
same,growth at 0.1 µM,MCF7 [8],51%
same,growth at 1 µM,HT-29,11%
same,growth at 1 µM,OVCAR-4 [9],50%
same,growth at 10 µM,NCI-H322M,-17%
same,growth at 10 µM,KM12,7%
same,growth at 10 µM,OVCAR-5,5%
same,growth at 100 µM,K562,6%
same,growth at 100 µM,SW-620,-23%
same,growth at 100 µM,IGROV-1,-38%
same,growth at 100 µM,MCF7 [10],-21%
C#C[C@@]1(O)[C@@H](CO)O[C@@H](n2ccc3c(N)ncnc32)[C@@H]1O,TGI,NCI-H226 [1]; read-out: TGI,4.85 µM
same,GI50,NCI-H226 [1],2.04 µM
same,CC50,NCI-H226 [1],26.3 µM
same,TGI,NCI-H226 [1]; read-out: pTGI (converted),4.9 µM
same,CC50,NCI-H23; [12],> 100 µM
same,TGI,NCI-H23; read-out: TGI,4.32 µM
same,GI50,NCI-H23,1.17 µM
same,TGI,NCI-H23; read-out: pTGI (converted),4.37 µM
same,TGI,HCT-116; read-out: TGI,10.8 µM
same,GI50,HCT-116,0.589 µM
same,CC50,HCT-116; [11],85.1 µM
same,TGI,HCT-116; read-out: pTGI (converted),10.7 µM
same,TGI,UACC-62; read-out: TGI,4.48 µM
same,GI50,UACC-62,1.78 µM
same,CC50,UACC-62,19.5 µM
same,TGI,UACC-62; read-out: pTGI (converted),4.47 µM
same,TGI,UO-31 [2]; read-out: TGI,3.58 µM
same,GI50,UO-31 [2],1.41 µM
same,TGI,UO-31 [2]; read-out: pTGI (converted),3.55 µM
same,CC50,DU-145 [3],> 100 µM
same,TGI,DU-145 [3]; read-out: TGI,6.55 µM
same,GI50,DU-145 [3],0.562 µM
same,TGI,DU-145 [3]; read-out: pTGI (converted),6.61 µM
same,growth at 0.01 µM,MOLT-4,96%
same,growth at 0.01 µM,SR,101%
same,growth at 0.01 µM,NCI-H226 [4],94%
same,growth at 0.01 µM,NCI-H522,90%
same,growth at 0.01 µM,Malme-3M,86%
same,growth at 0.01 µM,SK-OV-3,94%
same,growth at 0.01 µM,UO-31 [5],94%
same,growth at 0.1 µM,HOP-92,104%
same,growth at 0.1 µM,COLO 205,97%
same,growth at 0.1 µM,SNB-19,98%
same,growth at 0.1 µM,SK-MEL-2,90%
same,growth at 0.1 µM,OVCAR-3,106%
same,growth at 0.1 µM,OVCAR-4 [6],97%
same,growth at 0.1 µM,NCI/ADR-RES,92%
same,growth at 0.1 µM,TK-10,110%
same,growth at 0.1 µM,DU-145 [7],98%
same,growth at 0.1 µM,MCF7 [8],73%
same,growth at 1 µM,HT-29,49%
same,growth at 1 µM,OVCAR-4 [9],75%
same,growth at 10 µM,NCI-H322M,-16%
same,growth at 10 µM,KM12,2%
same,growth at 10 µM,OVCAR-5,-8%
same,growth at 100 µM,K562,2%
same,growth at 100 µM,SW-620,-45%
same,growth at 100 µM,IGROV-1,-28%
same,growth at 100 µM,MCF7 [10],-53%
